Measured values: US20010012846A1, “Quinoline-4-carboxamide derivatives as NK-2 and NK-3 receptor antagonists” (priority 1997, published 2001)

Key:
[1] = molecular target: T1, human neurokinin-2 receptor (Homo sapiens, UniProt P21452); assay: Binding affinity to human NK-2 receptor expressed in CHO cells (inhibition of [125I]-NKA or [3H]-NKA binding); conditions: human neurokinin-2 receptor expressed in CHO cell lines; read-out: Binding affinity, Ki (nM) hNK-2-CHO
T1 construct: expressed in transfected cells; host or cells: CHO
T1 sequence (P21452 1-398): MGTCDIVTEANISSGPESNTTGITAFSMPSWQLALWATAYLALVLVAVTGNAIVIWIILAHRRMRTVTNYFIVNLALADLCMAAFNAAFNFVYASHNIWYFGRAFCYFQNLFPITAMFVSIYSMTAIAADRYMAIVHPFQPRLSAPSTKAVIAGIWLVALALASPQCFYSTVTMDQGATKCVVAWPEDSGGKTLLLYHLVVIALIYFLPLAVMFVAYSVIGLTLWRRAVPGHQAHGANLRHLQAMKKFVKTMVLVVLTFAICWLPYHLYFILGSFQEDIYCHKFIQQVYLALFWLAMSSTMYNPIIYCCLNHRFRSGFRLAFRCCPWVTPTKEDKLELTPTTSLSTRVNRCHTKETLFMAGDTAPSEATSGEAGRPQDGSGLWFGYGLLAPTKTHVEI
Protocol: The activity of the compounds of the present invention, as NK-2 ligands, is determined by their ability to inhibit the binding of the radiolabelled NK-2 ligands, [^125I]-NKA or [^3H]-NKA, to human NK-2 receptors (Aharony et al, 1992, Neuropeptide, 23, 121-130).
The binding assays utilized allow the determination of the concentration of the individual compound required to reduce by 50% the [^125I]-NKA and [^3H]-NKA specific binding to NK2 receptor in equilibrium conditions (IC50).
Binding assays provide for each compound tested a mean IC50 value of 2-5 separate experiments performed in duplicate or triplicate. […] The NK-2-antagonist activity of the compounds of the present invention is determined by their ability to inhibit human NK-2 receptor-mediated Ca^++ mobilization (Mochizuki et al, 1994, J. Biol. Chem., 269, 9651-9658). Human receptor functional assay allows the determination of the concentration of the individual compound required to reduce by 50% (IC50 values) the Ca^++ mobilization induced by the agonist NKA. In this assay, the compounds of the present invention behave as antagonists.

[2] = molecular target: T2, human neurokinin-3 receptor (Homo sapiens, UniProt P29371); assay: Binding affinity to human NK-3 receptor expressed in CHO cells (inhibition of [125I]-[Me-Phe7]-NKB or [3H]-Senktide binding); conditions: human neurokinin-3 receptor expressed in CHO cell lines; read-out: Binding affinity, Ki (nM) hNK-3-CHO
T2 construct: expressed in transfected cells; host or cells: CHO
T2 sequence (P29371 1-465): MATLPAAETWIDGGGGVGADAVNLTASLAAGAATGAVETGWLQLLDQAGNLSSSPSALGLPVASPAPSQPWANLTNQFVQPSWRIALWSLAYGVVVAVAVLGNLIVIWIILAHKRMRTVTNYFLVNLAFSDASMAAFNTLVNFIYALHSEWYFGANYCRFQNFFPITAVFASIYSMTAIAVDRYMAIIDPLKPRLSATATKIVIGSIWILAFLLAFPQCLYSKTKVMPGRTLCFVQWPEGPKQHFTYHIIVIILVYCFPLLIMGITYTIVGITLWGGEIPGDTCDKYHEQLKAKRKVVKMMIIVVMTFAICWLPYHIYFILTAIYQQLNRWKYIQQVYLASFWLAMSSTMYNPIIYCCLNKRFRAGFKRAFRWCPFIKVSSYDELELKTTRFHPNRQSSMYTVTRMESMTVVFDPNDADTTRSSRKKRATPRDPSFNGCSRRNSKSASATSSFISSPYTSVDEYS
Protocol: The activity of the compounds of the present invention, as NK3 ligands, is determined by their ability to inhibit the binding of the radiolabelled NK3 ligands, [^125I]-[Me-Phe^7]-NKB or [^3H]-Senktide, to guinea-pig and human NK3 receptors (Renzetti et al, 1991, Neuropeptide, 18, 104-114; Buell et al, 1992, FEBS, 299(1), 90-95; Chung et al, 1994, Biochem. Biophys. Res. Commun., 198(3), 967-972).
The binding assays utilized allow the determination of the concentration of the individual compound required to reduce by 50% the [^125I]-[Me-Phe^7]-NKB and [^3H]-Senktide specific binding to NK3 receptor in equilibrium conditions (IC50).
Binding assays provide for each compound tested a mean IC50 value of 2-5 separate experiments performed in duplicate or triplicate. […] The NK3-antagonist activity of the compounds of the present invention is determined by their ability to inhibit senktide-induced contraction of the guinea-pig ileum (Maggi et al, 1990, Br. J. Pharmacol., 101, 996-1000) and rabbit isolated iris sphincter muscle (Hall et al., 1991, Eur. J. Pharmacol., 199, 9-14) and human NK3 receptors-mediated Ca^++ mobilization (Mochizuki et al, 1994, J. Biol. Chem., 269, 9651-9658). Guinea-pig and rabbit in-vitro functional assays provide for each compound tested a mean KB value of 3-8 separate experiments, where KB is the concentration of the individual compound required to produce a 2-fold rightward shift in the concentration-response curve of senktide. Human receptor functional assay allows the determination of the concentration of the individual compound required to reduce by 50% (IC50 values) the Ca^++ mobilization induced by the agonist NKB. In this assay, the compounds of the present invention behave as antagonists.

Compound	melting point	Ki [1] [nM]	Ki [2] [nM]
CC[C@H](NC(=O)c1c(CN2CC[C@@H](O)C2)c(-c2ccccc2)nc2ccccc12)c1ccccc1 [Example 33]	100 to 105 °C	64.8	2.9
CC[C@H](NC(=O)c1c(CCN2CCN(c3ccc(Cl)cc3)CC2)c(-c2ccccc2)nc2ccccc12)c1ccccc1 [Example 27]	100 to 110 °C (dec.)	53.5	2.8

The next compounds have a lower Ki [1] than those just listed; values first:

melting point	Ki [1] [nM]	Ki [2] [nM]	Compound
142 to 145 °C	38	1.5	CC[C@H](NC(=O)c1c(CN2CCC(=O)C2)c(-c2ccccc2)nc2ccccc12)c1ccccc1 [Example 34, (S)-N-(α-ethylbenzyl)-3-[(3-oxo)pyrrolidin-1-ylmethyl]-2-phenylquinoline-4-carboxamide]
93 to 96 °C	35.3	2.5	CC[C@H](NC(=O)c1c(CCN2CCN(c3ccc(C)cc3)CC2)c(-c2ccccc2)nc2ccccc12)c1ccccc1 [Example 29]
96 to 98 °C	27.1	3	CC[C@H](NC(=O)c1c(CCN2CCN(c3ccc(F)cc3)CC2)c(-c2ccccc2)nc2ccccc12)c1ccccc1 [Example 30]
